Literature values in publication PMC12337022, “Randomized, Double-Blind, Crossover Study Comparing the Bioavailability of 4 Ashwagandha (Withania somnifera (L.) Dunal) Extracts in Healthy Adults Under Fasting Condition” (Current Therapeutic Research, Clinical and Experimental, 2025).
Read-outs that look alike come from different tables or passages of the source.

Tests used:
[1] = system: Madin-Darby canine kidney cells
[2] = design: method as in Pires et al 27; conditions: Phase I dose-escalation, 13 participants, highest dose level tested, HPLC sensitivity 50 ng/mL; ref Pires et al 27
[3] = design: method as in Dai et al 20; conditions: rat and human liver microsomes; ref Dai et al 20
[4] = design: method as in Singh et al 25; conditions: Sprague-Dawley rats, orally at 25 mg/kg and intravenously at 2 mg/kg; ref Singh et al 25
[5] = Madin-Darby canine kidney cells, in vitro

1,2-deoxy-withastramonolide
permeability [1, 5]: highly permeable

CC1=C(CO)C(=O)O[C@@H]([C@@H](C)[C@H]2CC[C@H]3[C@@H]4C[C@H]5O[C@]56[C@@H](O)C=CC(=O)[C@]6(C)[C@H]4CC[C@]23C)C1 [withaferin A]
permeability [1, 5]: low permeability
detectability in plasma [2]: not detectable
half-life [3]: 5.6 min
oral bioavailability [4]: about 5%

CC1=C(C)C(=O)O[C@@H]([C@](C)(O)[C@H]2CC[C@H]3[C@@H]4[C@@H]5O[C@@H]5[C@@]5(O)CC=CC(=O)[C@]5(C)[C@H]4CC[C@]23C)C1 [withanolide A]
permeability ([1]; MDCK): highly permeable

CC1=C(C)C(=O)O[C@@H]([C@@H](C)[C@H]2CC[C@H]3[C@@H]4[C@@H]5O[C@@H]5[C@@]5(O)CC=CC(=O)[C@]5(C)[C@H]4CC[C@]23C)C1 [withanolide B]
permeability ([1]; MDCK): highly permeable

CC1=C(C)C(=O)O[C@@H]([C@@H](C)[C@@]2(O)CC[C@H]3[C@@H]4[C@@H]5O[C@@H]5[C@@]5(O)CC=CC(=O)[C@]5(C)[C@H]4CC[C@@]32C)C1 [withanone]
permeability [1, 5]: highly permeable

CC1=C(CO)C(=O)O[C@@H]([C@@H](C)[C@H]2CC[C@H]3[C@@H]4CC=C5C[C@@H](O[C@@H]6O[C@H](CO[C@@H]7O[C@H](CO)[C@@H](O)[C@H](O)[C@H]7O)[C@@H](O)[C@H](O)[C@H]6O)C[C@H](O)[C@]5(C)[C@H]4CC[C@]23C)C1 [withanoside IV]
permeability ([1]; MDCK): low permeability

CC1=C(C)C(=O)O[C@@H]([C@@H](C)[C@H]2CC[C@H]3[C@@H]4CC=C5C[C@@H](O[C@@H]6O[C@H](CO[C@@H]7O[C@H](CO)[C@@H](O)[C@H](O)[C@H]7O)[C@@H](O)[C@H](O)[C@H]6O)C[C@H](O)[C@]5(C)[C@H]4CC[C@]23C)C1 [withanoside V]
permeability ([1]; MDCK): low permeability
